According to US8791148B2, “Substituted benzimidazolone derivatives, medicaments comprising them and their use” (AbbVie Deutschland GmbH & Co. KG, priority 2006, dated 2014):

target: T1, human vasopressin V1b receptor (Homo sapiens, UniProt P47901); assay: Vasopressin V1b receptor binding assay; conditions: membranes from CHO-K1 cells with stably expressed human V1b receptors; displacement of 1.5 nM 3H-AVP; read-out: V1b receptor affinity (affinity constant Ki)
T1 construct: expressed in transfected cells; host or cells: CHO-K1 (cell line hV1b-3H2_CHO), membrane preparation
T1 sequence (P47901 1-424): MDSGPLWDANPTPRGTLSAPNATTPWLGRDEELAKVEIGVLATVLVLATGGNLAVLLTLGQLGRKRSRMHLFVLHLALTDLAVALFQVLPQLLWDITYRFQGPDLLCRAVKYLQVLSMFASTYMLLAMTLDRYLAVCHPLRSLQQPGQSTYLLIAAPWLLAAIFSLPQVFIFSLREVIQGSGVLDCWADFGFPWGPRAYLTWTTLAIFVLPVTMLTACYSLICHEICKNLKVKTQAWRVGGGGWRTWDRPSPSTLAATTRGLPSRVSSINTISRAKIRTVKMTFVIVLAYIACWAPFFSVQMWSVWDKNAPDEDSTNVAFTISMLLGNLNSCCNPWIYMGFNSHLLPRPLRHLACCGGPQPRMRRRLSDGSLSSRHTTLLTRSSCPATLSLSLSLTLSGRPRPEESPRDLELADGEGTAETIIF
Procedure: Vasopressin V1b Receptor Binding Assay:
The test substances were dissolved in a concentration of 10^−2 M in DMSO and further diluted to 5×10^−4 M to 5×10^−9 M in DMSO. This series of DMSO predilutions was diluted 1:10 with assay buffer. The substance concentration was again diluted 1:5 in the assay mixture (2% DMSO in the mixture).
The membrane pellet was again homogenized and centrifuged as described and then taken up in 50 mM Tris-HCl, pH 7.4, homogenized and stored in aliquots frozen in liquid nitrogen at −190° C.
The incubation buffer was: 50 mM Tris, 10 mM MgCl2, 0.1% BSA, pH 7.4. […] The nonspecific binding was determined with 1 uM AVP (Bachem #H1780). All determinations were carried out as triplicate determinations. After incubation (60 minutes at room temperature), the free radioligand was removed by vacuum filtration (Skatron cell harvester 7000) through Wathman GF/B glass fiber filter mats, and the filters were transferred into scintillation vials. The liquid scintillation measurement took place in a Tricarb model 2000 or 2200CA instrument (Packard). Conversion of the measured cpm into dpm was carried out with the aid of a standard quench series.
The binding parameters were calculated by nonlinear regression in SAS.
The above assay was used to measure the affinities of the compounds of the invention for the human vasopressin V1b receptor and to determine the affinity constants (Ki).

| SMILES | Ki [nM] |
| --- | --- |
| COc1ccc(C(C(=O)N2CCN(c3ccncc3)CC2)n2c(=O)n(S(=O)(=O)c3ccc(OC)cc3)c3ccc(Cl)cc32)cc1 (centres unmarked) [Example 33, 5-Chloro-1-(4-methoxybenzenesulfonyl)-3-[1-(4-methoxyphenyl)-2-oxo-2-(4-pyridin-4-ylpiperazin-1-yl)-ethyl]-1,3-dihydrobenzimidazol-2-one] | 100 to 500 |
| CN1CCC(N2CCN(C(=O)C(c3ccccc3)n3c(=O)n(S(=O)(=O)c4cccc5cccnc45)c4cc(Cl)c(Cl)cc43)CC2)CC1 (centres unmarked) [Example 35, 5,6-Dichloro-1-{2-[4-(1-methylpiperidin-4-yl)piperazin-1-yl]-2-oxo-1-phenylethyl}-3-(quinoline-8-sulfonyl)-1,3-dihydrobenzimidazol-2-one] | 500 to 10000 |
| COc1ccc(S(=O)(=O)n2c(=O)n(C(C(=O)N3CCN(C4CCN(C)CC4)CC3)c3ccccc3)c3cc(Cl)c(Cl)cc32)cc1 (centres unmarked) [Example 36, 5,6-Dichloro-1-(4-methoxybenzenesulfonyl)-3-{2-[4-(1-methylpiperidin-4-yl)piperazin-1-yl]-2-oxo-1-phenylethyl}-1,3-dihydrobenzimidazol-2-one] | 500 to 10000 |
| COc1ccc(S(=O)(=O)n2c(=O)n(C(C(=O)N3CCN(c4ccncc4)CC3)c3ccccc3)c3ccccc32)cc1 (centres unmarked) [Example 41, 1-(4-Methoxybenzenesulfonyl)-3-[2-oxo-1-phenyl-2-(4-pyridin-4-ylpiperazin-1-yl)ethyl]-1,3-dihydrobenzimidazol-2-one] | 500 to 10000 |
| O=C(C(c1ccccc1)n1c(=O)n(S(=O)(=O)c2ccc(OC(F)(F)F)cc2)c2ccc(Cl)cc21)N1CCN(c2ccncc2)CC1 (centres unmarked) [Example 42, 5-Chloro-3-[2-oxo-1-phenyl-2-(4-pyridin-4-ylpiperazin-1-yl)ethyl]-1-(4-trifluoromethoxybenzenesulfonyl)-1,3-dihydrobenzimidazol-2-one] | 500 to 10000 |
| COc1cc(C)ccc1S(=O)(=O)n1c(=O)n(C(C(=O)N2CCN(c3ccncc3)CC2)c2ccccc2)c2cc(Cl)ccc21 (centres unmarked) [Example 43, 5-Chloro-1-(2-methoxy-4-methyl-benzenesulfonyl)-3-[2-oxo-1-phenyl-2-(4-pyridin-4-ylpiperazin-1-yl)ethyl]-1,3-dihydrobenzimidazol-2-one] | 500 to 10000 |
| COc1ccccc1S(=O)(=O)n1c(=O)n(C(C(=O)N2CCN(c3ccncc3)CC2)c2ccccc2)c2cc(Cl)ccc21 (centres unmarked) [Example 45, 5-Chloro-1-(2-methoxybenzenesulfonyl)-3-[2-oxo-1-phenyl-2-(4-pyridin-4-ylpiperazin-1-yl)ethyl]-1,3-dihydrobenzimidazol-2-one] | 100 to 500 |
| O=C(C(c1ccccc1)n1c(=O)n(S(=O)(=O)c2ccccc2)c2ccc(Cl)cc21)N1CCN(c2ccncc2)CC1 (centres unmarked) [Example 47, 1-Benzenesulfonyl-5-chloro-3-[2-oxo-1-phenyl-2-(4-pyridin-4-ylpiperazin-1-yl)ethyl]-1,3-dihydrobenzimidazol-2-one] | 100 to 500 |
| CCCN1CCN(C2CCN(C(=O)C(c3ccccc3)n3c(=O)n(S(=O)(=O)c4ccc(OC)cc4)c4ccc(C#N)cc43)C2)CC1 (centres unmarked) [Example 52, 1-(4-Methoxybenzenesulfonyl)-2-oxo-3-{2-oxo-1-phenyl-2-[3-(4-propylpiperazin-1-yl)-pyrrolidin-1-yl]-ethyl}-2,3-dihydro-1H-benzimidazole-5-carbonitrile] | < 100 |
| COc1ccc(S(=O)(=O)n2c(=O)n(C(C(=O)N3CCN(C4CCN(C)CC4)CC3)c3ccccc3)c3cc(Cl)ccc32)cc1 (centres unmarked) [Example 55, 5-Chloro-1-(4-methoxybenzenesulfonyl)-3-{2-[4-(1-methylpiperidin-4-yl)piperazin-1-yl]-2-oxo-1-phenylethyl}-1,3-dihydrobenzimidazol-2-one] | 100 to 500 |
| COc1ccc(S(=O)(=O)n2c(=O)n(C(C(=O)N3CCN(c4ccncc4)CC3)c3ccccc3)c3cc(Cl)ccc32)c(OC)c1 (centres unmarked) [Example 56, 5-Chloro-1-(2,4-dimethoxybenzenesulfonyl)-3-[2-oxo-1-phenyl-2-(4-pyridin-4-ylpiperazin-1-yl)-ethyl]-1,3-dihydrobenzimidazol-2-one] | 100 to 500 |
| N#Cc1ccc(S(=O)(=O)n2c(=O)n(C(C(=O)N3CCN(c4ccncc4)CC3)c3ccccc3)c3cc(Cl)ccc32)cc1 (centres unmarked) [Example 57, 4-{5-Chloro-2-oxo-3-[2-oxo-1-phenyl-2-(4-pyridin-4-ylpiperazin-1-yl)-ethyl]-2,3-dihydrobenzimidazole-1-sulfonyl}-benzonitrile] | < 100 |

Now from value to molecule:

| Ki [nM] | SMILES |
| --- | --- |
| 500 to 10000 | COc1ccc(S(=O)(=O)n2c(=O)n(C(C(=O)N3CCN(C4CCN(C)CC4)CC3)c3ccccc3)c3ccc(Cl)cc32)c(OC)c1 (centres unmarked) [Example 37, 5-Chloro-3-(2,4-dimethoxybenzenesulfonyl)-1-{2-[4-(1-methylpiperidin-4-yl)piperazin-1-yl]-2-oxo-1-phenylethyl}-1,3-dihydrobenzimidazol-2-one] |
| 100 to 500 | COc1ccc(S(=O)(=O)n2c(=O)n(C(C(=O)N3CCN(C4CCN(C)CC4)CC3)c3ccccc3)c3ccc(Cl)cc32)cc1 (centres unmarked) [Example 38, 5-Chloro-3-(4-methoxybenzenesulfonyl)-1-{2-[4-(1-methylpiperidin-4-yl)piperazin-1-yl]-2-oxo-1-phenylethyl}-1,3-dihydrobenzimidazol-2-one] |
| 500 to 10000 | CN1CCC(N2CCN(C(=O)C(c3ccccc3)n3c(=O)n(S(=O)(=O)c4ccc(C#N)cc4)c4cc(Cl)ccc43)CC2)CC1 (centres unmarked) [Example 39, 4-(6-Chloro-3-{2-[4-(1-methylpiperidin-4-yl)piperazin-1-yl]-2-oxo-1-phenylethyl}-2-oxo-2,3-dihydrobenzimidazole-1-sulfonyl)benzonitrile] |
| 500 to 10000 | O=C(C(c1ccccc1)n1c(=O)n(S(=O)(=O)c2cccc3cccnc23)c2cc(Cl)c(Cl)cc21)N1CCN(c2ccncc2)CC1 (centres unmarked) [Example 40, 5,6-Dichloro-1-[2-oxo-1-phenyl-2-(4-pyridin-4-ylpiperazin-1-yl)ethyl]-3-(quinoline-8-sulfonyl)-1,3-dihydrobenzimidazol-2-one] |
| 100 to 500 | O=C(C(c1ccccc1)n1c(=O)n(S(=O)(=O)c2cccs2)c2ccc(Cl)cc21)N1CCN(c2ccncc2)CC1 (centres unmarked) [Example 44, 5-Chloro-3-[2-oxo-1-phenyl-2-(4-pyridin-4-ylpiperazin-1-yl)ethyl]-1-(thiophene-2-sulfonyl)-1,3-dihydrobenzimidazol-2-one] |
| 100 to 500 | COc1ccc(S(=O)(=O)n2c(=O)n(C(C(=O)N3CCN(c4ccncc4)CC3)c3ccccc3)c3cc(C#N)ccc32)cc1 (centres unmarked) [Example 46, 1-(4-Methoxybenzenesulfonyl)-2-oxo-3-[2-oxo-1-phenyl-2-(4-pyridin-4-ylpiperazin-1-yl)ethyl]-2,3-dihydro-1H-benzimidazole-5-carbonitrile] |
| 500 to 10000 | COc1ccc(S(=O)(=O)n2c(=O)n(C(C(=O)N3CCN(c4ccncc4)CC3)c3ccccc3)c3cc(C#N)ccc32)c(OC)c1 (centres unmarked) [Example 48, 1-(2,4-Dimethoxybenzenesulfonyl)-2-oxo-3-[2-oxo-1-phenyl-2-(4-pyridin-4-ylpiperazin-1-yl)-ethyl]-2,3-dihydro-1H-benzimidazole-5-carbonitrile] |
| 500 to 10000 | O=C(C(c1ccccc1)n1c(=O)n(S(=O)(=O)c2ccc(C(F)(F)F)cc2)c2ccc(Cl)cc21)N1CCN(c2ccncc2)CC1 (centres unmarked) [Example 49, 5-Chloro-3-[2-oxo-1-phenyl-2-(4-pyridin-4-ylpiperazin-1-yl)ethyl]-1-(4-trifluoromethylbenzenesulfonyl)-1,3-dihydrobenzimidazol-2-one] |
| 500 to 10000 | N#Cc1ccc2c(c1)n(C(C(=O)N1CCN(c3ccncc3)CC1)c1ccccc1)c(=O)n2S(=O)(=O)c1cccc2cccnc12 (centres unmarked) [Example 50, 2-Oxo-3-[2-oxo-1-phenyl-2-(4-pyridin-4-ylpiperazin-1-yl)ethyl]-1-(quinoline-8-sulfonyl)-2,3-dihydro-1H-benzimidazole-5-carbonitrile] |
| 500 to 10000 | N#Cc1ccc(S(=O)(=O)n2c(=O)n(C(C(=O)N3CCN(c4ccncc4)CC3)c3ccccc3)c3cc(C#N)ccc32)cc1 (centres unmarked) [Example 51, 1-(4-Cyanobenzenesulfonyl)-2-oxo-3-[2-oxo-1-phenyl-2-(4-pyridin-4-ylpiperazin-1-yl)ethyl]-2,3-dihydro-1H-benzimidazole-5-carbonitrile] |
| < 100 | O=C(C(c1ccccc1)n1c(=O)n(S(=O)(=O)c2cccc3cccnc23)c2ccc(Cl)cc21)N1CCN(c2ccncc2)CC1 (centres unmarked) [Example 53, 5-Chloro-3-[2-oxo-1-phenyl-2-(4-pyridin-4-ylpiperazin-1-yl)ethyl]-1-(quinoline-8-sulfonyl)-1,3-dihydrobenzimidazol-2-one] |
